Assay [1] is described as follows: SV40 cytopathic effect inhibition and cytotoxicity, confirmation, BSC cells, set 3 (AID 485276). It is filed as functional, cell-based. (Protection from cytopathic effect is a common read-out in antiviral testing.)
The next assay concerns the target Large T antigen (Simian virus 40, UniProt P03070). As to the kind of experiment: A confirmatory biochemical assay using the ADP-Hunter methodology, purified TAg, and ATP to quantify activity of synthesized compounds that inhibit the ATPase activity of Tag (3). [Related pubchem assays (depositor defined):AID1903, AID1909, AID2102, AID2501, AID2615, AID2775, AID435001, AID449729]. More on the design: species or system Betapolyomavirus macacae.

For assay [2], the target named is T1, Dual specificity protein phosphatase 3 (Homo sapiens, UniProt P51452). Put plainly: SAR VHR1 absorbance Assay for In Vitro dose response studies. [Related pubchem assays (depositor defined):AID1654, AID1661, AID1878, AID1992, AID2004].
The target in assay [3] is T2, Tyrosine-protein phosphatase non-receptor type 7 (Homo sapiens, UniProt P35236).
T2 sequence (P35236 whole entry): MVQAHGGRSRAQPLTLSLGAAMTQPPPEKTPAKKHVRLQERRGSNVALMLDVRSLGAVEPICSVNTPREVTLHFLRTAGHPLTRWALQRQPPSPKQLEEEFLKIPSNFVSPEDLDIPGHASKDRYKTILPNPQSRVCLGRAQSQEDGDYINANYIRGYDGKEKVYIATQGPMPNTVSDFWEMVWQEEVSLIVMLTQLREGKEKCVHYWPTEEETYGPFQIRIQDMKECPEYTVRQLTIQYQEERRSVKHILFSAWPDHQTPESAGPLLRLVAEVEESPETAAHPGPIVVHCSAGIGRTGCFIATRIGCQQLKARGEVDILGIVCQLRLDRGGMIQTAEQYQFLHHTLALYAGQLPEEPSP
Put plainly: SAR analysis of chemical inhibitors of HePTP using a Fluorescent assay - Set 2. [Related pubchem assays (depositor defined):AID1059, AID1077, AID1661, AID2085, AID521]. It is filed as functional.

The target in assay [4] is T2, Tyrosine-protein phosphatase non-receptor type 7. As to the kind of experiment: HePTP (PTPN7) phosphatase inhibitor potency, SAR follow-up, biochemical, set 2 (AID 449736). It is filed as functional.
The target is the same in assay [5]. As to the kind of experiment: redox-dependent HePTP inhibition, mechanism study, biochemical, fluorescence (AID 2068). It is filed as functional.
Assay [6] has as its target T3, Dual specificity protein phosphatase 6 (Rattus norvegicus, UniProt Q64346).
T3 sequence (Q64346 whole entry): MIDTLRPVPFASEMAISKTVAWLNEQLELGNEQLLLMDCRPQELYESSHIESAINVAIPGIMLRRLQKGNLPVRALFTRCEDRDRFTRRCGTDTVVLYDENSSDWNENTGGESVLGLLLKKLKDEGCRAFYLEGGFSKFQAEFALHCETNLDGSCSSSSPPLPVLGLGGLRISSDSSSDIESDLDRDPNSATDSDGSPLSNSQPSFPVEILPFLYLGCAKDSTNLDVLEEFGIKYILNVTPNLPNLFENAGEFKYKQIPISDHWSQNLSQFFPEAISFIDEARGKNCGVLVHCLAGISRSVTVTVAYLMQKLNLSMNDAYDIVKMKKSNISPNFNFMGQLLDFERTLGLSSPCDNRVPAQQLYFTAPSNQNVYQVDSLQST
As to the kind of experiment: SAR analysis of inhibitors of MKP-3 - Set 2. [Related pubchem assays (depositor defined):AID1055, AID1661, AID425, AID553, AID566]. It is filed as functional.

Assay [7] addresses T3, Dual specificity protein phosphatase 6. It is filed as functional.
Assay [8] deals with T1, Dual specificity protein phosphatase 3. Put plainly: SAR VHR1 Fluorescent Assay for In Vitro dose response studies Set 2. [Related pubchem assays (depositor defined):AID1654, AID1661, AID1878]. It is filed as functional.
Assay [9] has the same target. Put plainly: SAR VHR1 Fluorescent Assay for In Vitro dose response studies. [Related pubchem assays (depositor defined):AID1654, AID1661, AID1878, AID1992, AID2004, AID2070, AID2085]. It is filed as functional.
The target of another assay is Troponin, cardiac muscle (Homo sapiens, UniProt P19429+P45379+P63316). Put plainly: Fluorescence-based biochemical high throughput dose response assay for activators of the calcium sensitivity of cardiac Regulated Thin Filaments (RTF). [Related pubchem assays (depositor defined):AID493008, AID493018, AID504382, AID504383]. It is filed as protein-complex assay.
The target in a further assay is T4, Bcl-2-related protein A1 (Mus musculus, UniProt Q07440).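 Further: confirmatory dose–response counterscreen on Bfl-1, used to check hits from a UBC13 polyubiquitin inhibitor campaign.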
T4 sequence (Q07440 whole entry): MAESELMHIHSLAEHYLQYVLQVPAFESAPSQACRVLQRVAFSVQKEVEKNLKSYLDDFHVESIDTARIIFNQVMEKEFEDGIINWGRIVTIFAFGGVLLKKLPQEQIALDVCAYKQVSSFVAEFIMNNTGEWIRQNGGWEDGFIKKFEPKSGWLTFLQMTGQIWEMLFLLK
It is filed as functional.

A short description of assay [10]: HEp-2 cell cytotoxicity, dose response, cytotoxicity control for RSV inhibitor project, HTS (AID 2410). It is filed as functional. Conditions: human respiratory syncytial virus.
For assay [11], the target named is T5, Ubiquitin-conjugating enzyme E2 N (Homo sapiens, UniProt P61088).
T5 sequence (P61088 whole entry): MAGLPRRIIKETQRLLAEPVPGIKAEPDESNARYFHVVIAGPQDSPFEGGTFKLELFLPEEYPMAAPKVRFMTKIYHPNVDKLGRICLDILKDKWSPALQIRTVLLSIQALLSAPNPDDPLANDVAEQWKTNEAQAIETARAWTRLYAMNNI
It is filed as functional.

The target of assay [12] is Intestinal-type alkaline phosphatase (Homo sapiens, UniProt P09923). Put plainly: human intestinal alkaline phosphatase activators, dose response, biochemical, luminescence, uHTS hits (AID 463120). It is filed as functional.
For assay [13], the target named is T5, Ubiquitin-conjugating enzyme E2 N. It is filed as functional. This is another data set of the same source.

Activity calls are given as the source filed them. For most assays here, no stated cut-off is given here; in the data, actives have a measured IC50 and inactives only a lower limit.

T1 sequence (P51452 whole entry): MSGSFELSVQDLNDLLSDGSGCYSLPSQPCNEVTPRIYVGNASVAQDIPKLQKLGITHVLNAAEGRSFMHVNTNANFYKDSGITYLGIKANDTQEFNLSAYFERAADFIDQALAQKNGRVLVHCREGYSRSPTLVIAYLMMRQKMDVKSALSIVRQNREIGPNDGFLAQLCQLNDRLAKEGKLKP
Chain of Large T antigen (P03070 whole entry): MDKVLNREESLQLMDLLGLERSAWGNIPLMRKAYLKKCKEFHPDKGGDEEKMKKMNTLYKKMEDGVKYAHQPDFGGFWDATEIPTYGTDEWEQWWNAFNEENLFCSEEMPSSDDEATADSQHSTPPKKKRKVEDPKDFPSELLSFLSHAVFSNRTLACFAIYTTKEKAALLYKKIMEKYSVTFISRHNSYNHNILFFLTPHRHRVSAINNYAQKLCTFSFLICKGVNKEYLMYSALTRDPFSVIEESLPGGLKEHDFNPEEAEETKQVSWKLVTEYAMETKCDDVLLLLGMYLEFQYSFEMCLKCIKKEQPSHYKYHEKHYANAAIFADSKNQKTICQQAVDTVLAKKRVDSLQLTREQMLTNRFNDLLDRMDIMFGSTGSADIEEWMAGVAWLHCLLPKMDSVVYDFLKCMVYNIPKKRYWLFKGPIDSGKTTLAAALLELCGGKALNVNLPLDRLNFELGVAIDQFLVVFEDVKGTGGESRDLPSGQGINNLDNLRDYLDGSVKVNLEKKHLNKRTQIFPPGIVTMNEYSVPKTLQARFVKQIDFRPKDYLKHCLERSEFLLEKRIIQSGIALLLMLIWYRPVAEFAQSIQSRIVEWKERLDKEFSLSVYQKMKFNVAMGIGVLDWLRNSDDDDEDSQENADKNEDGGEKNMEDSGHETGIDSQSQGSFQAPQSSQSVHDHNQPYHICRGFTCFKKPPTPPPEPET
Chain of Intestinal-type alkaline phosphatase (P09923 whole entry): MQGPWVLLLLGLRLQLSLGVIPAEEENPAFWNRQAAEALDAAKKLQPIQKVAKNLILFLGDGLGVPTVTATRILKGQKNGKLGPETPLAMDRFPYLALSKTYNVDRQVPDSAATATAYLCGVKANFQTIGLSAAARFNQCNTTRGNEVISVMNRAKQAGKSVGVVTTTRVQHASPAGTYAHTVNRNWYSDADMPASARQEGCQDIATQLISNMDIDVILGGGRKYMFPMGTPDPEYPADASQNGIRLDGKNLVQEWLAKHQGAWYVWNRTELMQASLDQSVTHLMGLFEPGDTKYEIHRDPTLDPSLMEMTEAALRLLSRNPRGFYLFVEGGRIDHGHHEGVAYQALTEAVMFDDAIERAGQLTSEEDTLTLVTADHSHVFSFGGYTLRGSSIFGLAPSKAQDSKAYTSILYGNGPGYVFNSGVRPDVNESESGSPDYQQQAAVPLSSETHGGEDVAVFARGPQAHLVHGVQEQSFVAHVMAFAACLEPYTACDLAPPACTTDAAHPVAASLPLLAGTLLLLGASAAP

By IC50 is commonly meant the point on the concentration scale where inhibition reaches its midpoint. Regarding `Oc1ccc(Sc2ccc(O)cc2O)c(O)c1`, the IC50 was 146 µM (active) in [1] and 61.2 µM (active) at Large T antigen.

For the compound `NS(=O)(=O)c1ccc(NC(=S)N2CCN(Cc3ccc4c(c3)OCO4)CC2)cc1`, the IC50 was 5.41 µM (active) in assay [2]; 4.32 µM (active) in assay [3]; > 100 µM (inactive) in assay [4]; 0.196 µM (active) in assay [5]; > 100 µM (inactive) in [6]; > 99 µM (inactive) in assay [7]. For the same compound, the values for the IC50 in assay [8] and in assay [9] were 1.69 µM (active) and > 99 µM (inactive), respectively.

In general, EC50 refers to the concentration that produces a half-maximal response. Turning to `Cc1sc(NC(=O)CSc2nnc(C(C)C)n2C)c(C#N)c1C`, at Troponin, cardiac muscle, the EC50 is > 71.5 µM (inactive).

What is called CC50 is the concentration giving 50% cytotoxicity. On to `C#CCOCCOCCOCCNc1nc(N2CCN(C(=O)CCCCCCCCCCNC(=O)[C@H]([C@@H](C)CC)n3cc(CCCCN=C(N)N)nn3)CC2)nc(N2CCN(C(=O)CCCCCCCCCCNC(=O)[C@H](CO)n3cc(CCCSC)nn3)CC2)n1`, for which the values for the IC50 (at Bcl-2-related protein A1; in [11]; in assay [13]) were 3.11 µM (active), 5.99 µM (active) and 3.7 µM (active), respectively. Besides, the CC50 in assay [10] was 13.7 µM (active). For the same compound, in assay [12], the EC50 is 40.7 µM (active).

The values are drawn from ChEMBL document CHEMBL1201862, “PubChem BioAssay data set” (2004).
